“Also recorded” adds a separate entry of the source.
What was measured:
[1] = BBB-PAMPA Permeability; format: in vitro ADME; details: Test Conc. 10 μM
[2] = In vitro plasma, hepatocyte and liver microsomal stability assays (summary statement); format: in vitro ADME
[3] = Water solubility; format: physicochemical
[4] = Hepatocyte Stability (human); details: hepatocytes
[5] = target: T1, TrkB (Mus musculus, UniProt P15209); experiment: TrkB activation in brain of 5×FAD mice after chronic oral administration; format: in vivo
T1 construct: from tissue; host or cells: brain (hippocampus) of 5xFAD mice
Description: After 3 months of drug treatment, TrkB activation was monitored in the mouse brain by immunofluorescence with anti-phosphorylated TrkB (p-TrkB) antibody.

[6] = Plasma Stability (mouse); format: in vitro ADME
[7] = Hepatocyte Stability (mouse); details: hepatocytes
[8] = target: T2, TrkB (Rattus norvegicus, UniProt Q63604); experiment: TrkB activation in rat TrkB stably transfected SN56 cells (T48), immunoblotting; format: cell-based; details: treated 15 min, immunoblotting, read-out: EC50 of p-TrkB 706 and 816 activation
T2 construct: expressed in transfected cells

[9] = tested on: Delta-secretase (AEP, asparagine endopeptidase); experiment: AEP activation and APP and Tau proteolytic cleavage in 5×FAD mice; format: in vivo, mouse
Method: The processing of APP and Tau by AEP was evaluated by western blot.
Delta-secretase (AEP, asparagine endopeptidase) cleaves both APP and Tau, mediating AD pathogenesis. […] To further investigate APP proteolytic cleavage activity by AEP, immunofluorescent co-staining was conducted on 5×FAD brain section with anti-APP C585 and AEP antibodies.

[10] = tested on: T48 cells; experiment: Protection from staurosporine (STS)-induced apoptosis, MTT assay, T48 cells; format: cell-based
Method: Cytoprotective effects were tested. To examine whether these compounds protect cells from staurosporine (STS)-induced apoptosis, MTT assays were conducted using TrkB stable transfected cells or TrkB deficient SN56 cells.

[11] = Microsomal Intrinsic Clearance (mouse); details: liver microsomes; for microsomal CLint: Mouse microsomes
[12] = Plasma Stability (human); format: in vitro ADME
[13] = tested on: 5×FAD mice; experiment: Synaptic loss and plasticity in 5×FAD mice (Golgi staining, electron microscopy, immunoblotting, LTP); format: in vivo, mouse
Method: The dendritic spines from apical dendritic layer of the CA1 region were analyzed by Golgi staining. (Scale bar, […]). On top is quantitative analysis of the spine density.
Synaptic loss is believed to be the basis of cognitive impairment in the early phase of Alzheimer's disease. […] The density of dendritic spines along individual dendrites of pyramidal neurons were assessed by Golgi staining. […] Since one dendritic spine can form more than one synapse, the densities of synapse in the CA1 area were quantified in 5×FAD mice brain by electron microscopy. […] Immunoblotting was done using pre-synaptic markers (synaptotagmin) and post-synaptic markers (GluR1, PSD95 and spinophilin).

[14] = in vivo; details: mouse; for B/P Ratio, individual animal / Plasma concentration, Mean / Kp at 1 h / Kp at 2 h / Kp at 4 h: male; for Kp at 1 h / Kp at 2 h / Kp at 4 h: B/P Ratio
Method: The concentration ratio of brain/plasma was calculated, and PK analysis was performed using a non-compartmental method.

[15] = tested on: TrkB; experiment: Endogenous TrkB activation in DIV13 primary cortical cultures, immunoblotting; format: cell-based; details: 15 min
Method: Endogenous TrkB activation in primary neurons were tested in DIV13 primary cortical cultures. The neurons were treated with the two compounds with doses for 15 min. The lysates were analyzed by immunoblotting with antibodies.

[16] = tested on: Aβ; experiment: Aβ deposition in 5×FAD mice (immunohistochemistry, thioflavin-S, ELISA); format: in vivo, mouse
Method: The deposition of Aβ was tested by immunohistochemistry with anti-AP antibody.

[17] = tested on: IL-6; experiment: Inflammatory factor IL-6 in 5×FAD mouse brains; format: in vivo
[18] = Microsomal Intrinsic Clearance (human); details: liver microsomes; for microsomal CLint: Human microsomes
[19] = tested on: 5×FAD mice; experiment: Morris water maze test in 5×FAD mice; format: in vivo, mouse
Method: The hippocampus-dependent spatial memory of 5×FAD mice was tested by Morris water maze test. The average latency and swim path length for each of the 5 acquisition days were calculated and plotted. […] The memory recall for the platform location was assessed in the probe trail when the platform was removed, and the mice were allowed to search for 60 s.

[20] = in vivo; details: ICR, mouse, po, 5 mg/kg
Method: The compounds were orally administered into wild-type mice or 3×Tg, an Alzheimer's disease (AD) mouse model. […] Pharmacokinetic analysis was performed using non-compartmental methods.

[21] = NADPH-dependent CLint, with NADPH
[22] = ICR, iv, 2 mg/kg, individual animal

T1 sequence (P15209 32-821): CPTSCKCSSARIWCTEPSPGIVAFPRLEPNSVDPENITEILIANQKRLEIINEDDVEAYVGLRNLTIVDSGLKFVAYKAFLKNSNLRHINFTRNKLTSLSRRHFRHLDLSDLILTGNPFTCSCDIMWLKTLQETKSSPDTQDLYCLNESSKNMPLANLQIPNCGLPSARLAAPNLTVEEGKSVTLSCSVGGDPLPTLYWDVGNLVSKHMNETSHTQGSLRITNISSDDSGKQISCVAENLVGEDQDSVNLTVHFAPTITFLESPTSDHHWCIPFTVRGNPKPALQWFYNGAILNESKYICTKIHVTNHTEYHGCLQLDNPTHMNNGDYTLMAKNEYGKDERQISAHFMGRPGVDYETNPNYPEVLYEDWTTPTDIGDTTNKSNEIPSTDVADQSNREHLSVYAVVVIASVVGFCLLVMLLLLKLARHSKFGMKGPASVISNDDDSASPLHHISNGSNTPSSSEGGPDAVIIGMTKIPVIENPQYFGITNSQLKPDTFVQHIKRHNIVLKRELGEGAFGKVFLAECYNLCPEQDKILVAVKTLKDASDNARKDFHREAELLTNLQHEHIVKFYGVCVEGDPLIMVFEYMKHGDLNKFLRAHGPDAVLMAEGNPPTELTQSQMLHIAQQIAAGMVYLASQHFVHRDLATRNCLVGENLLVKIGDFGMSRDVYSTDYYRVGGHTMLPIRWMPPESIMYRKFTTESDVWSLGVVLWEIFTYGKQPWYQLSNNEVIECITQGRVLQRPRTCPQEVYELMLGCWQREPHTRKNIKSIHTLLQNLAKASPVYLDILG
T2 sequence (Q63604 32-821): as the sequence (P15209 32-821) above, with T3M, S9T, A10T, V32I, R63K, S84G, M153T, L185I, S394T, S770N counted along it

For `N#Cc1ccc(-c2cc(=O)c3ccc4[nH]c(C(F)(F)F)nc4c3o2)cc1` [CF3-CN, 4-(6-oxo-2-(trifluoromethyl)-3,6-dihydrochromeno[7,8-d]imidazol-8-yl)benzonitrile], the Pe [1] was 3.09, the recovery at 10 μM [1] was 89.9% and the “stability (comparison)” value [2] was “more stable than RM-CN”. The “water solubility (comparison)” value [3] was “more water soluble than RM-CN”, the “Avg % Remaining at Last Point” value [4] was 97.2% and the half-life [4] was greater than 8 h. For the same molecule, the hepatocyte CLint [4] was less than 2.9 µL/min/1e6 cells, the “TrkB activation in the hippocampus” value ([5]; oral 3 mg/kg, anti-p-TrkB Y816 immunofluorescence) was “provoked TrkB activation in the hippocampus” and the “total TrkB level in mouse brain” value ([5]; oral, 3 months of treatment) was “not total TrkB level were notably elevated”. For the same molecule, the “TrkB activation (p-TrkB signals) in mouse brain” value ([5]; oral, 3 months of treatment, vs vehicle) was “markedly activated”, the “phosphorylation of TrkB receptors and downstream AKT and ERK/MAPK pathways” value ([5]; oral, 3 months, vs vehicle control) was “more prominently phosphorylated” and the “Avg % Remaining at Last Point” value [6] was 107%. For the same molecule, the half-life [6] was greater than 8 h, the “Avg % Remaining at Last Point” value [7] was 94.8% and the half-life [7] was greater than 8 h. For the same molecule, the hepatocyte CLint [7] was less than 2.9 µL/min/1e6 cells, the EC50 [8] was 21.6 nM and the “Tau N368 staining” value ([9]; 5×FAD brain section) was “repressed”. For the same molecule, the “APP C585 immuno-signals” value ([9]; 5×FAD brain section, immunofluorescent co-staining) was “strongly inhibited”, the “AEP activity (enzymatic assay)” value ([9]; 5×FAD mice, 3 mg/kg) was “blocked” and the “AEP expression in Hippocampus” value ([9]; 5×FAD mice, immunofluorescence) was “progressively attenuated”. The “Mature and active AEP (immunoblotting)” value ([9]; 5×FAD mouse brains) was “decreased; also recorded: significantly inhibited AEP activation”, the “AEP-cleaved APP N373, N585 and Tau N368 truncates” value ([9]; 5×FAD mouse brains, western blot) was “reduction; also recorded: attenuated Tau and APP cleavage” and the EC50 [10] was 26.7 nM. It also gave a microsomal CLint [11, 21] of less than 12.8 µL/min/mg, a half-life ([11]; NADPH-dependent T1/2, Mouse microsomes, with NADPH) greater than 3 h and a microsomal CLint ([11]; NADPH-free CLint, NADPH-free) of less than 12.8 µL/min/mg. For the same molecule, the half-life ([11]; NADPH-free T1/2, Mouse microsomes, NADPH-free) was greater than 3 h, the “Avg % Remaining at Last Point” value [12] was 94.2% and the half-life [12] was greater than 8 h. For the same molecule, the “LTP (long-term potentiation)” value ([13]; fEPSPs induced by 3×TBS, vs vehicle) was “increased LTP; also recorded: reversed the LTP impairment”, the “synaptic markers (synaptotagmin, GluR1, PSD95, spinophilin), immunoblotting” value ([13]; repeated oral administration) was “reversed the reduction of synaptic markers” and the “synaptic density (electron microscopy)” value ([13]; repeated oral administration, CA1 area) was “remarkably reversed the loss of synaptic density in a dose-dependent way”. The “density of dendritic spines (Golgi staining)” value ([13]; repeated oral administration, CA1 region) was “noticeably rescued; also recorded: prevents or reverses the synaptic loss”, the Cmax ([14]; ICR, iv, 2 mg/kg) was 12700 ng/mL and the Tmax ([14]; ICR, iv, 2 mg/kg) was 4.8 min. The “B/P Ratio, individual animal” value ([14]; ICR, iv, 2 mg/kg, 1 h) was 0.01, the “Plasma concentration, Mean” value ([14]; ICR, iv, 2 mg/kg, 1 h) was 5288.5 ng/mL and the “B/P Ratio, individual animal” value ([14]; ICR, iv, 2 mg/kg, 2 h) was 0.01. For the same molecule, the “Plasma concentration, Mean” value ([14]; ICR, iv, 2 mg/kg, 2 h) was 2154.5 ng/mL, the “Plasma concentration, Mean” value ([14]; ICR, iv, 2 mg/kg, 4 h) was 544.8 ng/mL and the Kp at 1 h ([14]; ICR, iv, 2 mg/kg, Mean) was 0.01. For the same molecule, the Kp at 2 h ([14]; ICR, iv, 2 mg/kg, Mean) was 0.01, the Kp at 4 h ([14]; ICR, iv, 2 mg/kg, Mean) was 0.02 and the Kp at 1 h [14, 22] was 0.02. The Kp at 2 h [14, 22] was 0.01, the Kp at 4 h [14, 22] was 0.02 and the “passage of the blood-brain barrier” value [14] was “can pass the blood-brain barrier”. The “TrkB activation in primary neurons” value [15] was “dose-dependent effect in triggering TrkB activation”, the “number of plaques and plaque area fraction” value ([16]; cortex and hippocampus, vs vehicle control) was “significantly decreased” and the “Aβ42 concentrations (ELISA)” value ([16]; differences not statistically significant) was “reduction trend”. The “Aβ deposition (immunohistochemistry)” value ([16]; oral, vs vehicle group) was “significantly lower; also recorded: decreases Aβ plaque deposition”, the “inflammatory factors IL-6” value [17] was “repressed” and the microsomal CLint [18, 21] was less than 12.8 µL/min/mg. The half-life ([18]; NADPH-dependent T1/2, Human microsomes, with NADPH) was greater than 3 h, the microsomal CLint ([18]; NADPH-free CLint, NADPH-free) was less than 12.8 µL/min/mg and the half-life ([18]; NADPH-free T1/2, Human microsomes, NADPH-free) was greater than 3 h. The “learning impairment, area under curve (AUC) of latency” value ([19]; Morris water maze, 5 acquisition days) was “attenuated; also recorded: improves the spatial learning and memory”, the “AUC of the swim path distance” value ([19]; Morris water maze, no significant statistic differences) was “reduction trend” and the “percentage of time spent in target quadrant” value ([19]; probe trial, 60 s) was “significantly higher percentage of time in the target quadrant”. The AUC [20] was 68500 ng·h/mL.

Source: patent publication US11987589B2, “Heterocyclic flavone derivatives, compositions, and methods related thereto” (Emory University, priority 2018, dated 2024)
